Measured values: patent US20260271924A1, “COMPOSITIONS FOR MODULATING PLANT GROWTH AND STRESS TOLERANCE, AND METHODS OF USE THEREOF” (The Regents of the University of California, priority 2023, published 2026)
“Also recorded” adds a separate entry of the source.

Assays:
Arabidopsis [1] = test: Arabidopsis seedling growth / primary root length on treated ½× MS media; type: in vivo, Arabidopsis thaliana
Procedure: (§1) Plant Growth. For the Arabidopsis treatments, compounds were added to sterile ½× Murashige and Skoog (MS) plant growth media, and the pH was adjusted to 5.7 using potassium hydroxide. Seeds were sterilized using 20% bleach and sowed on the treated plant growth media. Plants were incubated in a 16 h/8 h day/night cycle growth chamber at 22° C. for 7-14 days prior to phenotyping. For the maize treatments, compounds were added to water, and the pH was adjusted to 5.7 using potassium hydroxide. Maize seeds were sterilized using 20% bleach and grown in large size seed germination pouches (see, e.g., mega-international.com) with the treatment. Plants were incubated in a 16 h/8 h day/night cycle growth chamber at 28° C. night/21° C. day for 5 days prior to phenotyping.
Stock Solutions. 100 mM stock solutions of the various metabolites and itaconate were produced. Metabolites were dissolved using Milli-Q (MQ) water and the pH was adjusted to 5.7-5.8 using 1M KOH. The Ocyl-itaconate stock solution was dissolved in dimethyl sulfoxide (DMSO). Arabidopsis seeds were sterilized using 20% bleach and allowed to mix for 7 minutes. After mixing, seeds were rinsed with sterilized water 6 times. Sterilized seedlings were then placed on media filled square plates. Micropore tape was used to wrap the plates and aluminum foil was used to cover plates, before stratifying for 2 days in a 4° C. chamber. After stratification, seedlings were placed in 22° C. light chamber at intensity 625 lux for 7 days before scanning. All quantifications of the seedlings were performed on FIJI Image J. Seedlings with interesting phenotypes were then transferred to soil in 22° C. conditions with light intensity 625 lux.

maize = test: Maize seedling growth under treatment in seed germination pouches; type: in vivo
Procedure: as §1

pCYCB1; 1-CYCB1; 1-GFP = test: Cell cycle reporter line imaging; type: in vivo, Arabidopsis thaliana; details: 50 μM 4-OI; compared to the control
Excerpt: (§2) Confocal Images. For Arabidopsis, most of the roots were stained by PI (Propidium iodide). Hormone reporter lines (GFP, 488 nm), hydrogen peroxide sensor lines (GFP, 488 nm; CFP, 408 nm) (see, Shi et al., Nat. Commun. 13:5040, 2022), ATP sensor lines (DeCol et al., eLife, 6:e26770, 2017) were observed under a Leica SP8 confocal microscope (CFP, 439 nm; VENUS, 516 nm).

6×ABRE-R:erGFP = test: ABA signaling reporter line imaging; type: in vivo, Arabidopsis thaliana; details: 4-OI treatment
Excerpt: as §2

TCSn-GFP = test: Cytokinin signaling reporter line imaging; type: in vivo, Arabidopsis thaliana
Excerpt: as §2

DR5-GFP = test: Auxin reporter line imaging; type: in vivo, Arabidopsis thaliana; details: 4-OI treatment; compared to the control
Excerpt: as §2

pPIN1-PIN1-GFP = test: Auxin transport reporter line imaging; type: in vivo, Arabidopsis thaliana; details: 4-OI treatment
Excerpt: as §2

ATP levels = test: Fluorescent ATP reporter line imaging; type: in vivo, Arabidopsis thaliana; details: 4-OI; meristem zone
Excerpt: as §2

superoxide = test: NBT staining of Arabidopsis roots (ROS); type: in vivo, Arabidopsis thaliana; details: NBT and H2DCFDA staining; 1 mM itaconate, 50 μM 4-OI
Procedure: ROS staining. For ROS staining, superoxides were detected using NBT; and hydrogen peroxide was detected using 2′,7′-dichlorodihydrofluorescein diacetate (H2DCFDA).
NBT staining procedures were carried out as described in Kumar et al., Bio-protcol, 4:e1108, 2014. Briefly, a 0.2% solution of NBT was made in a 50 mM sodium phosphate buffer. This solution was used to soak seedlings for 2 minutes in the dark and was then rinsed using deionized (DI) water. Images were taken on a with a 1× objective with a Nikon SMZ1270 Stereo microscope.

Arabidopsis [2] = test: Arabidopsis root growth under itaconate combined with stress agents or sucrose; type: in vivo, Arabidopsis thaliana; details: 50 mM NaCl; 100 mM Mannitol
Procedure: as §1

[3] = test system: root meristem and mature cells; test: Aconitate treatment of roots; type: in vivo; details: treatment with aconitate

SMILES: CC(CC(=O)O)C(=O)O (stereo not shown) [2-methyl succinate, reference compound]
- impact on Arabidopsis (primary root length) (Arabidopsis [1]; 0.5 mM 2-methyl succinate): does not impact Arabidopsis
- impact on Arabidopsis (primary root length) (Arabidopsis [1]; 2 mM 2-methyl succinate): does not impact Arabidopsis

SMILES: C=C(CC(=O)OCCCCCCCC)C(=O)O [4-OI, 4-octyl itaconate]
- maize root growth (maize; 50 μM 4-OI for 5 days): enhanced maize root growth
- maize shoot growth (maize; 50 μM 4-OI for 5 days): without affecting shoot growth
- Arabidopsis growth (Arabidopsis [1]; 4-OI, 4 day old seedlings treated for 3 days): inhibits Arabidopsis growth in a dose-dependent manner
- plant growth (Arabidopsis [1]; Arabidopsis, 50 μM 4-OI): nearly arrested plant growth
- root gravitropic orientation (Arabidopsis [1]; Arabidopsis, 4-OI (50 μM)): roots lose their gravitropic orientation; also recorded: defective gravitropic phenotype
- number of actively dividing cells (pCYCB1; 1-CYCB1; 1-GFP): significant reduction
- 6×ABARE-R:erGFP intensity in the roots (6×ABRE-R:erGFP): induces
- TCSn-GFP signal in the QC (TCSn-GFP; 4-OI treatment): increases the signal in the QC
- TCSn-GFP intensity in the columella (TCSn-GFP; itaconate or 4-OI treatment): decrease; also recorded: reduces
- DR5-GFP fluorescent intensity (DR5-GFP): significantly induced; also recorded: is increased
- pPIN1-PIN1-GFP fluorescent intensity and area (pPIN1-PIN1-GFP): reduces both the pPIN1-PIN1-GFP fluorescent intensity and area
- ATP levels (ATP levels): increased ATP levels
- ROS levels in Arabidopsis roots (superoxide): decrease in ROS levels; also recorded: repress

SMILES: C#CCCCCCCOC(=O)CC(=C)C(=O)O [ITalk, itaconate-alkyne, reference compound]
- phenotype induced by ITalk treatment (Arabidopsis [1]; Arabidopsis, 1 μM and 10 μM iTalk): closely resembles that of 4-OI

SMILES: [Cl-].[Na+] [NaCl, sodium chloride]
- root growth under stress agent alone (Arabidopsis [2]): decrease root growth

SMILES: O=C(O)/C=C(/CC(=O)O)C(=O)O [aconitate]
- length of mature cells [3]: increased the length of mature cells
- meristem cell number [3]: inhibited meristem cell number

SMILES: C=C(CC(=O)O)C(=O)O [itaconate]
- increased growth (maize; maize treated with itaconate, p=0.01): 30%
- decreased growth (Arabidopsis [1]; Arabidopsis, same concentration of itaconate as maize, p<0.0001): 25%

SMILES: OC[C@@H](O)[C@@H](O)[C@H](O)[C@H](O)CO [mannitol]
- root growth under stress agent alone (Arabidopsis [2]): decrease root growth
